Three compounds from PubChem BioAssay AID1745844 (Carcinogenic Potency Database (CPDB), 2022) can be followed below.

The data set deals with rodent lifetime carcinogenesis bioassay, tumor incidence TD50. Briefly: chronic cancer bioassays in animals – CPDB, compiled studies (AID 1745844).

Calls of active or inactive are those of the source. The rule behind the calls is not given here.

Usually TD50 stands for the dose at which the toxic effect under study appears in half of the subjects. Regarding `CCCCN(N=O)C(N)=O`, the TD50 is, setting by setting: (rat, strain F344/DuCrj, females, in drinking water, site: all sites, lesion: several types, types named in the paper, dosed 50 weeks, study length 50 weeks) 24.7 mg/kg/day; (rat, strain F344/DuCrj, females, in drinking water, site: digestive tract, lesion: several types, types named in the paper, dosed 50 weeks, study length 50 weeks) 1.3 mg/kg/day; (rat, strain F344/DuCrj, females, in drinking water, site: ear duct, lesion: several types, types named in the paper, dosed 50 weeks, study length 50 weeks) 11.6 mg/kg/day; (rat, strain F344/DuCrj, females, in drinking water, site: ear duct, lesion: squamous-cell carcinoma, sebaceous, dosed 50 weeks, study length 50 weeks) 19.4 mg/kg/day; (rat, strain F344/DuCrj, females, in drinking water, site: esophagus, lesion: papilloma, dosed 50 weeks, study length 50 weeks) 6.58 mg/kg/day; (rat, strain F344/DuCrj, females, in drinking water, site: esophagus, lesion: several types, types named in the paper, dosed 50 weeks, study length 50 weeks) 3.21 mg/kg/day. Moreover, the TD50 is 8.05 mg/kg/day (rat, strain F344/DuCrj, females, in drinking water, site: esophagus, lesion: squamous-cell carcinoma, dosed 50 weeks, study length 50 weeks); 4 mg/kg/day (rat, strain F344/DuCrj, females, in drinking water, site: forestomach, lesion: papilloma, dosed 50 weeks, study length 50 weeks); 2.43 mg/kg/day (rat, strain F344/DuCrj, females, in drinking water, site: forestomach, lesion: several types, types named in the paper, dosed 50 weeks, study length 50 weeks); 10.2 mg/kg/day (rat, strain F344/DuCrj, females, in drinking water, site: forestomach, lesion: squamous-cell carcinoma, dosed 50 weeks, study length 50 weeks); 8.05 mg/kg/day (rat, strain F344/DuCrj, females, in drinking water, site: pharynx, lesion: several types, types named in the paper, dosed 50 weeks, study length 50 weeks); 10.2 mg/kg/day (rat, strain F344/DuCrj, females, in drinking water, site: pharynx, lesion: squamous-cell carcinoma, dosed 50 weeks, study length 50 weeks). Also, the TD50 was 13.5 mg/kg/day (rat, strain F344/DuCrj, females, in drinking water, site: tongue, lesion: papilloma, dosed 50 weeks, study length 50 weeks); 10.2 mg/kg/day (rat, strain F344/DuCrj, females, in drinking water, site: tongue, lesion: several types, types named in the paper, dosed 50 weeks, study length 50 weeks); 6 mg/kg/day (rat, strain F344/DuCrj, females, in drinking water, site: vagina, lesion: papilloma, dosed 50 weeks, study length 50 weeks); 5.05 mg/kg/day (rat, strain F344/DuCrj, females, in drinking water, site: vagina, lesion: several types, types named in the paper, dosed 50 weeks, study length 50 weeks); 10.2 mg/kg/day (rat, strain F344/DuCrj, males, in drinking water, site: all sites, lesion: several types, types named in the paper, dosed 50 weeks, study length 50 weeks); 0.91 mg/kg/day (rat, strain F344/DuCrj, males, in drinking water, site: digestive tract, lesion: several types, types named in the paper, dosed 50 weeks, study length 50 weeks). The TD50 (rat, strain F344/DuCrj, males, in drinking water, site: duodenum, lesion: several types, types named in the paper, dosed 50 weeks, study length 50 weeks) was found to be 11.8 mg/kg/day; the TD50 (rat, strain F344/DuCrj, males, in drinking water, site: ear duct, lesion: several types, types named in the paper, dosed 50 weeks, study length 50 weeks) was 11.8 mg/kg/day; the TD50 (rat, strain F344/DuCrj, males, in drinking water, site: esophagus, lesion: papilloma, dosed 50 weeks, study length 50 weeks) was 4.08 mg/kg/day; the TD50 (rat, strain F344/DuCrj, males, in drinking water, site: esophagus, lesion: several types, types named in the paper, dosed 50 weeks, study length 50 weeks) is 3.02 mg/kg/day; the TD50 (rat, strain F344/DuCrj, males, in drinking water, site: esophagus, lesion: squamous-cell carcinoma, dosed 50 weeks, study length 50 weeks) is 17 mg/kg/day; the TD50 (rat, strain F344/DuCrj, males, in drinking water, site: forestomach, lesion: papilloma, dosed 50 weeks, study length 50 weeks) came out at 3.25 mg/kg/day. Moreover, the TD50 (rat, strain F344/DuCrj, males, in drinking water, site: forestomach, lesion: several types, types named in the paper, dosed 50 weeks, study length 50 weeks) is 2.62 mg/kg/day; the TD50 (rat, strain F344/DuCrj, males, in drinking water, site: palate, soft, lesion: several types, types named in the paper, dosed 50 weeks, study length 50 weeks) turned out to be 11.8 mg/kg/day; the TD50 (rat, strain F344/DuCrj, males, in drinking water, site: palate, soft, lesion: squamous-cell carcinoma, dosed 50 weeks, study length 50 weeks) was 17 mg/kg/day; the TD50 (rat, strain Fischer 344, females, by gavage, site: colon, lesion: one or several types, types not named, dosed 40 weeks, study length 104 weeks) is 2.31 mg/kg/day; the TD50 (rat, strain Fischer 344, females, by gavage, site: forestomach, lesion: one or several types, types not named, dosed 40 weeks, study length 104 weeks) is 0.267 mg/kg/day; the TD50 (rat, strain Fischer 344, females, by gavage, site: lung, lesion: several types, types named in the paper, dosed 40 weeks, study length 104 weeks) was 0.277 mg/kg/day. The TD50 by setting is: (rat, strain Fischer 344, females, by gavage, site: mammary gland, lesion: adenocarcinoma, dosed 40 weeks, study length 104 weeks) 0.758 mg/kg/day; (rat, strain Fischer 344, females, by gavage, site: uterus, lesion: several types, types named in the paper, dosed 40 weeks, study length 104 weeks) 0.551 mg/kg/day; (rat, strain Fischer 344, males, by gavage, site: colon, lesion: one or several types, types not named, dosed 40 weeks, study length 104 weeks) 1.61 mg/kg/day; (rat, strain Fischer 344, males, by gavage, site: forestomach, lesion: one or several types, types not named, dosed 40 weeks, study length 104 weeks) 0.259 mg/kg/day; (rat, strain Fischer 344, males, by gavage, site: lung, lesion: several types, types named in the paper, dosed 40 weeks, study length 104 weeks) 0.187 mg/kg/day; (rat, strain MRC-Wistar, females, in drinking water, site: all sites, lesion: myelocytic leukemia, dosed 39 weeks, study length 85 weeks) 3.27 mg/kg/day. In addition, the TD50 was 1.02 mg/kg/day (rat, strain MRC-Wistar, females, in drinking water, site: any site (literature study), lesion: one or several types, types not named, dosed 39 weeks, study length 85 weeks); 6.63 mg/kg/day (rat, strain MRC-Wistar, females, in drinking water, site: liver, lesion: one or several types, types not named, dosed 39 weeks, study length 85 weeks); 6.63 mg/kg/day (inactive) (rat, strain MRC-Wistar, females, in drinking water, site: mammary gland, lesion: one or several types, types not named, dosed 39 weeks, study length 85 weeks); 2.86 mg/kg/day (rat, strain MRC-Wistar, males, in drinking water, site: all sites, lesion: myelocytic leukemia, dosed 39 weeks, study length 85 weeks); 1.64 mg/kg/day (rat, strain MRC-Wistar, males, in drinking water, site: any site (literature study), lesion: one or several types, types not named, dosed 39 weeks, study length 85 weeks); 26.1 mg/kg/day (rat, strain MRC-Wistar, males, in drinking water, site: liver, lesion: one or several types, types not named, dosed 39 weeks, study length 85 weeks).

Take `Cc1[nH]cnc1CSCCN=C(NC#N)N(C)N=O`: the carcinogen call reads like this: (mouse, strain C57BL/6, females, in drinking water, site: liver, lesion: several types, types named in the paper, dosed 102 weeks, study length 104 weeks) “negative (inactive)”; (mouse, strain C57BL/6, females, in drinking water, site: lung, lesion: one or several types, types not named, dosed 102 weeks, study length 104 weeks) “negative (inactive)”; (rat, strain Fischer 344, males, in drinking water, site: liver, lesion: neoplastic nodule, dosed 106 weeks, study length 131 weeks) “negative (inactive)”; (rat, strain Sprague-Dawley, females, by gavage, site: any site (literature study), lesion: malignant tumor, dosed 52 weeks, study length 104 weeks) “negative (inactive)”; (rat, strain Sprague-Dawley, females, by gavage, site: any site (literature study), lesion: several types, types named in the paper, dosed 52 weeks, study length 104 weeks) “negative (inactive)”; (rat, strain Sprague-Dawley, males, by gavage, site: any site (literature study), lesion: several types, types named in the paper, dosed 52 weeks, study length 104 weeks) “negative (inactive)”. For the same compound, the TD50 runs as follows: (rat, strain Fischer 344, females, in drinking water, site: liver, lesion: neoplastic nodule, dosed 106 weeks, study length 131 weeks) 43.3 mg/kg/day (inactive); (rat, strain Fischer 344, females, in drinking water, site: pituitary gland, lesion: one or several types, types not named, dosed 106 weeks, study length 131 weeks) 3.6 mg/kg/day (inactive); (rat, strain Fischer 344, females, in drinking water, site: thyroid gland, lesion: one or several types, types not named, dosed 106 weeks, study length 131 weeks) 18.8 mg/kg/day (inactive); (rat, strain Sprague-Dawley, males, by gavage, site: any site (literature study), lesion: malignant tumor, dosed 52 weeks, study length 104 weeks) 4820 mg/kg/day (inactive).

With `Oc1ccccc1`, the carcinogen call is “negative (inactive)” (mouse, strain B6C3F1, females, in drinking water, site: any site (literature study), lesion: several types, types named in the paper, dosed 103 weeks, study length 104 weeks); “negative (inactive)” (mouse, strain B6C3F1, males, in drinking water, site: any site (literature study), lesion: several types, types named in the paper, dosed 103 weeks, study length 104 weeks); “negative (inactive)” (rat, strain Fischer 344, females, in drinking water, site: any site (literature study), lesion: several types, types named in the paper, dosed 103 weeks, study length 104 weeks). For the same compound, the TD50 is, setting by setting: (mouse, strain B6C3F1, females, in drinking water, site: lung, lesion: alveolar/bronchiolar adenoma + alveolar/bronchiolar carcinoma, dosed 103 weeks, study length 104 weeks) 18500 mg/kg/day; (mouse, strain B6C3F1, males, in drinking water, site: liver, lesion: hepatocellular adenoma + hepatocellular carcinoma + neoplastic nodule, dosed 103 weeks, study length 104 weeks) 2450 mg/kg/day; (mouse, strain B6C3F1, males, in drinking water, site: lung, lesion: alveolar/bronchiolar adenoma + alveolar/bronchiolar carcinoma, dosed 103 weeks, study length 104 weeks) 8290 mg/kg/day; (rat, strain Fischer 344, males, in drinking water, site: all sites, lesion: leukemia + lymphoma, dosed 103 weeks, study length 104 weeks) 133 mg/kg/day; (rat, strain Fischer 344, males, in drinking water, site: all sites, lesion: leukemia, dosed 103 weeks, study length 104 weeks) 143 mg/kg/day; (rat, strain Fischer 344, males, in drinking water, site: all sites, lesion: monocytic leukemia, dosed 103 weeks, study length 104 weeks) 143 mg/kg/day. The TD50 (rat, strain Fischer 344, males, in drinking water, site: thyroid gland, lesion: c-cell carcinoma, dosed 103 weeks, study length 104 weeks) was 420 mg/kg/day (inactive).
